From ChEMBL document CHEMBL1201862, “PubChem BioAssay data set” (2004)
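A five-concentration, 48-hour dose response in 96-well plates underlies each endpoint, interpolated linearly between surrounding concentrations. GI50 marks 50% less growth.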 Calls of active or inactive are those of the source. No stated cut-off is given here; in the data, active = GI50 up to about 1.1 µM and inactive = higher.

Legend:
Assay in all cases: growth of human tumour cells (NCI), 48 h
PC-3 = test system: PC-3
NCI-H522 = test system: NCI-H522
MDA-N = test system: MDA-N
ACHN = test system: ACHN
CCRF-CEM = test system: CCRF-CEM
TK-10 = test system: TK-10
SF-539 = test system: SF-539
DU-145 = test system: DU-145
Malme-3M = test system: Malme-3M
M14 = test system: M14
RXF 393 = test system: RXF 393
MDA-MB-231 = test system: MDA-MB-231
OVCAR-3 = test system: OVCAR-3
HCT-15 = test system: HCT-15
SK-MEL-5 = test system: SK-MEL-5
SF-295 = test system: SF-295
EKVX = test system: EKVX
HT-29 = test system: HT-29
HCC 2998 = test system: HCC 2998

| SMILES | GI50 (PC-3) | GI50 (NCI-H522) | GI50 (MDA-N) | GI50 (ACHN) | GI50 (CCRF-CEM) | GI50 (TK-10) | GI50 (SF-539) | GI50 (DU-145) | GI50 (Malme-3M) | GI50 (M14) | GI50 (RXF 393) | GI50 (MDA-MB-231) | GI50 (OVCAR-3) | GI50 (HCT-15) | GI50 (SK-MEL-5) | GI50 (SF-295) | GI50 (EKVX) | GI50 (HT-29) | GI50 (HCC 2998) |
| --- | --- | --- | --- | --- | --- | --- | --- | --- | --- | --- | --- | --- | --- | --- | --- | --- | --- | --- | --- |
| CN(CC(=O)O)c1ncc2c(n1)C=CCC2 | > 100 µM (inactive) | > 100 µM (inactive) | > 100 µM (inactive) | > 100 µM (inactive) | > 100 µM (inactive) | > 100 µM (inactive) | > 100 µM (inactive) | > 100 µM (inactive) | > 100 µM (inactive) | > 100 µM (inactive) | > 100 µM (inactive) | > 100 µM (inactive) | > 100 µM (inactive) | > 100 µM | > 100 µM (inactive) | > 100 µM (inactive) | > 100 µM (inactive) | > 100 µM (inactive) | – |
| CC(C)(C)OC(=O)N1CC(O)O[C@H](c2ccccc2)[C@@H]1c1ccccc1 (stereo not given in full) | 14.7 µM (inactive) | 21.2 µM (inactive) | 28.2 µM (inactive) | – | 21.6 µM (inactive) | 17.8 µM (inactive) | – | 25.5 µM (inactive) | 19.4 µM (inactive) | 16.4 µM (inactive) | 15.1 µM (inactive) | 28.2 µM (inactive) | 15.6 µM (inactive) | 18 µM | 27.9 µM (inactive) | 16.4 µM (inactive) | 19.5 µM (inactive) | 20.6 µM (inactive) | – |
| COc1cc(/C=N/NC(=O)c2c(Cl)c(Cl)c(Cl)c(Cl)c2-c2nc3ccccc3[nH]2)ccc1O | 29.4 µM (inactive) | 30.6 µM (inactive) | 24 µM (inactive) | 21.4 µM (inactive) | 21.9 µM (inactive) | – | 26.7 µM (inactive) | 19.9 µM (inactive) | 21.7 µM (inactive) | 24.7 µM (inactive) | 20.2 µM (inactive) | – | 27.3 µM (inactive) | 22 µM | 14.9 µM (inactive) | 24.1 µM (inactive) | 19.2 µM (inactive) | 22.2 µM (inactive) | 17.2 µM (inactive) |
| O=C1c2c(ccc3c2CCC3)CC1Cc1ccc2c(c1)CCC2 (stereo not given) | – | – | 30.8 µM (inactive) | 36.1 µM (inactive) | 14.5 µM (inactive) | 29.2 µM (inactive) | 91 µM (inactive) | 27.3 µM (inactive) | 28.8 µM (inactive) | 32.1 µM (inactive) | 25.7 µM (inactive) | 10.3 µM (inactive) | 24.4 µM (inactive) | 11 µM | 12.5 µM (inactive) | 26.9 µM (inactive) | 28.1 µM (inactive) | 17.6 µM (inactive) | 34.3 µM (inactive) |
| Fc1ccc(OCc2ccc3nc(-c4ccccc4)c(Cl)nc3c2)cc1 | 37.2 µM (inactive) | 6.19 µM (inactive) | 72.4 µM (inactive) | 25.4 µM (inactive) | 25.7 µM (inactive) | 31.8 µM (inactive) | 16 µM (inactive) | 30.5 µM (inactive) | 9.44 µM (inactive) | 67.8 µM (inactive) | – | 20 µM (inactive) | 47.6 µM (inactive) | > 100 µM | 17 µM (inactive) | 21.4 µM (inactive) | 39.6 µM (inactive) | 65.2 µM (inactive) | 40.5 µM (inactive) |
| O=C1COC(c2ccccc2O)=NN1CCCN1CCCC1 | > 100 µM (inactive) | > 100 µM (inactive) | > 100 µM (inactive) | > 100 µM (inactive) | – | > 100 µM (inactive) | > 100 µM (inactive) | > 100 µM (inactive) | > 100 µM (inactive) | > 100 µM (inactive) | > 100 µM (inactive) | > 100 µM (inactive) | > 100 µM (inactive) | > 100 µM | > 100 µM (inactive) | > 100 µM (inactive) | > 100 µM (inactive) | > 100 µM (inactive) | – |
| CC(=O)/C(=C/NC(=S)c1ccncc1)C(=O)Nc1ccccc1C | – | – | > 100 µM (inactive) | > 100 µM (inactive) | – | > 100 µM (inactive) | > 100 µM (inactive) | > 100 µM (inactive) | – | > 100 µM (inactive) | > 100 µM (inactive) | > 100 µM (inactive) | > 100 µM (inactive) | > 100 µM | > 100 µM (inactive) | > 100 µM (inactive) | > 100 µM (inactive) | > 100 µM (inactive) | > 100 µM (inactive) |
| O=C1Nc2ccccc2/C1=C1/Nc2ccccc2/C1=N/OCCO | 15.1 µM (inactive) | > 100 µM (inactive) | 23 µM (inactive) | 0.352 µM (active) | > 100 µM (inactive) | 9.73 µM (inactive) | > 100 µM (inactive) | 0.713 µM (active) | 5.53 µM (inactive) | 2.39 µM (inactive) | 5.85 µM (inactive) | – | 1.51 µM (inactive) | 0.433 µM | 0.771 µM (active) | 17.3 µM (inactive) | 0.662 µM (active) | 2.44 µM (inactive) | 24.8 µM (inactive) |
| O=c1oc2ccccc2c2c(=O)c3ccc(OC/C(=N/O)c4ccc(Cl)cc4)cc3oc12 | 7.48 µM (inactive) | – | 3.57 µM (inactive) | 5.85 µM (inactive) | 28.3 µM (inactive) | – | 7.89 µM (inactive) | 18.6 µM (inactive) | – | 14.6 µM (inactive) | 2.16 µM (inactive) | 20.8 µM (inactive) | 3.62 µM (inactive) | 7.4 µM | 5.05 µM (inactive) | 1.89 µM (inactive) | – | – | – |
| CC1(C)CN=C(Nc2ccc(F)cc2)S1 | > 100 µM (inactive) | > 100 µM (inactive) | > 100 µM (inactive) | > 100 µM (inactive) | > 100 µM (inactive) | > 100 µM (inactive) | > 100 µM (inactive) | > 100 µM (inactive) | > 100 µM (inactive) | > 100 µM (inactive) | > 100 µM (inactive) | – | > 100 µM (inactive) | > 100 µM | > 100 µM (inactive) | > 100 µM (inactive) | > 100 µM (inactive) | > 100 µM (inactive) | > 100 µM (inactive) |
| c1cc2c3c(c1)[C@@H]1O[C@@H]1c1cccc(c1-3)[C@@H]1O[C@H]21 | 22.9 µM (inactive) | 14.8 µM (inactive) | 17.9 µM (inactive) | 18.7 µM (inactive) | – | 32.2 µM (inactive) | – | 18 µM (inactive) | 15.4 µM (inactive) | 15 µM (inactive) | 2.93 µM (inactive) | 19.1 µM (inactive) | – | 17.5 µM | 17.9 µM (inactive) | 23.6 µM (inactive) | 16.6 µM (inactive) | 17.7 µM (inactive) | – |
| Oc1nncc2[nH]c(-c3ccccc3)cc12 | 30.1 µM (inactive) | – | 38.9 µM (inactive) | 46.3 µM (inactive) | 36.7 µM (inactive) | 39.4 µM (inactive) | – | 79.8 µM (inactive) | 56.9 µM (inactive) | 51.8 µM (inactive) | 27 µM (inactive) | 34 µM (inactive) | 36.2 µM (inactive) | 45.8 µM | 23.3 µM (inactive) | 26.2 µM (inactive) | 21.9 µM (inactive) | 36.4 µM (inactive) | 36 µM (inactive) |
| O=C1C(NS(=O)(=O)c2ccccc2)=C(n2ccnc2)C(=O)c2ccccc21 | > 100 µM (inactive) | > 100 µM (inactive) | > 100 µM (inactive) | > 100 µM (inactive) | > 100 µM (inactive) | 24.7 µM (inactive) | > 100 µM (inactive) | > 100 µM (inactive) | 96.4 µM (inactive) | > 100 µM (inactive) | > 100 µM (inactive) | > 100 µM (inactive) | > 100 µM (inactive) | > 100 µM | > 100 µM (inactive) | > 100 µM (inactive) | > 100 µM (inactive) | > 100 µM (inactive) | – |
| C=C(C)CC1=C(C(=S)NCCO[Si](C)(C)C(C)(C)C)C(OCC)(OCC)C1=O | 14.8 µM (inactive) | 13.7 µM (inactive) | 19.3 µM (inactive) | 18 µM (inactive) | > 100 µM (inactive) | 16.1 µM (inactive) | 19.9 µM (inactive) | 23 µM (inactive) | 12.7 µM (inactive) | 18.3 µM (inactive) | 13.6 µM (inactive) | 26.4 µM (inactive) | – | 8.93 µM | 15.2 µM (inactive) | 17.6 µM (inactive) | 16.6 µM (inactive) | 9.59 µM (inactive) | – |
| COc1cc(OC)c(-c2ccc(OCc3ccccc3)c3c(OC)cc(C)cc23)c2c1C(C)=N[C@H](C)C2 | 2.1 µM (inactive) | 1.82 µM (inactive) | 2.15 µM (inactive) | 2.25 µM (inactive) | 1.99 µM (inactive) | 1.8 µM (inactive) | 2.38 µM (inactive) | 2.38 µM (inactive) | 1.8 µM (inactive) | 2.03 µM (inactive) | 2.77 µM (inactive) | 2.33 µM (inactive) | 2.25 µM (inactive) | 2.14 µM | 2.27 µM (inactive) | 2.01 µM (inactive) | 2.4 µM (inactive) | 1.97 µM (inactive) | – |
| CC1(C)SC2C(NC(=O)C(C(=O)O)c3ccccc3)C(=O)N2C1C(=O)O (stereo not given) | > 100 µM (inactive) | – | > 100 µM (inactive) | > 100 µM (inactive) | > 100 µM (inactive) | > 100 µM (inactive) | > 100 µM (inactive) | > 100 µM (inactive) | > 100 µM (inactive) | > 100 µM (inactive) | > 100 µM (inactive) | > 100 µM (inactive) | > 100 µM (inactive) | > 100 µM | > 100 µM (inactive) | > 100 µM (inactive) | > 100 µM (inactive) | > 100 µM (inactive) | – |
| Cn1c2c(c3ccccc3c1=O)C(=O)c1ccccc1-2 | > 100 µM (inactive) | 11.7 µM (inactive) | > 100 µM (inactive) | – | > 100 µM (inactive) | 21.4 µM (inactive) | 19.7 µM (inactive) | > 100 µM (inactive) | > 100 µM (inactive) | > 100 µM (inactive) | – | 43.4 µM (inactive) | 76.4 µM (inactive) | 9.79 µM | 29.9 µM (inactive) | > 100 µM (inactive) | 20.6 µM (inactive) | 97.5 µM (inactive) | – |
